This is an account of results in patent US11052092B2, “N-{[2-(piperidin-1-yl)phenyl](phenyl)methyl}-2-(3-oxo-3,4-dihydro-2H-1,4-benzoxazin-7-yl)acetamide derivatives and related compounds as ROR-gamma modulators for treating autoimmune diseases” (Genfit, priority 2017, dated 2021).

Where a name gives a salt, the structure may show the parent alone.

The term melting point denotes the temperature of the solid-liquid transition. `Cc1ccc(C(NC(=O)Cc2ccc3c(c2)CN(S(C)(=O)=O)C3)c2ccc(C)o2)c(N2CCCCC2)c1` (stereo not shown) (as salt: HCl) [Cpd. 41, 2-(2-methanesulfonyl-2,3-dihydro-1H-isoindol-5-yl)-N-{[4-methyl-2-(piperidin-1-yl)phenyl](5-methylfuran-2-yl)methyl}acetamide] gave a melting point of 83 °C.
The figure for `Cc1ccc(C(NC(=O)Cc2cccc3c2CN(S(C)(=O)=O)C3)c2ccc(C)o2)c(N2CCCCC2)c1` (stereo not shown) (as salt: HCl) [Cpd. 50, 2-(2-methanesulfonyl-2,3-dihydro-1H-isoindol-4-yl)-N-{[4-methyl-2-(piperidin-1-yl)phenyl](5-methylfuran-2-yl)methyl}acetamide] is 155 °C.
With `Cc1ccc(C(NC(=O)Cc2ccc3c(c2)CCC3=O)c2ccc(C)o2)c(N2CCCCC2)c1` (stereo not shown) (as salt: HCl) [Cpd. 51, N-{[4-methyl-2-(piperidin-1-yl)phenyl](5-methylfuran-2-yl)methyl}-2-(1-oxo-2,3-dihydro-1H-inden-5-yl)acetamide], the melting point worked out at 74 °C.
The figure for `Cc1ccc(C(NC(=O)Cc2cc(C)c3c(c2)CC(=O)N3)c2ccc(C)o2)c(N2CCCCC2)c1` (stereo not shown) (as salt: HCl) [Cpd. 54, N-{[4-methyl-2-(piperidin-1-yl)phenyl](5-methylfuran-2-yl)methyl}-2-(7-methyl-2-oxo-2,3-dihydro-1H-indol-5-yl)acetamide] is 237 °C; for `CC(C)=C1C(=O)Nc2ccc(CC(=O)NC(c3ccc(C)o3)c3ccc(C)cc3N3CCCCC3)cc21` (stereo not shown) (as salt: HCl) [Cpd. 55, N-{[4-methyl-2-(piperidin-1-yl)phenyl](5-methylfuran-2-yl)methyl}-2-[2-oxo-3-(propan-2-ylidene)-2,3-dihydro-1H-indol-5-yl]acetamide] it is 172 °C; for `Cc1ccc(C(NC(=O)C2(c3ccc4c(c3)CN(S(C)(=O)=O)C4)CC2)c2ccc(Cl)o2)c(C)c1` (stereo not shown) (as salt: HCl) [Cpd. 56, N-[(5-chlorofuran-2-yl)(2,4-dimethylphenyl)methyl]-1-(2-methanesulfonyl-2,3-dihydro-1H-isoindol-5-yl)cyclopropane-1-carboxamide] it is 68 °C.
In turn, `Cc1ccc(C(NC(=O)Cc2ccc3[nH]cc(CCO)c3c2)c2ccc(C)o2)c(N2CCCCC2)c1` (stereo not shown) (as salt: HCl) [Cpd. 57, 2-[3-(2-hydroxyethyl)-1H-indol-5-yl]-N-{[4-methyl-2-(piperidin-1-yl)phenyl](5-methylfuran-2-yl)methyl}acetamide] had a melting point of 80 °C.
Compound `Cc1ccc(C(NC(=O)Cc2ccc3[nH]cc(CO)c3c2)c2ccc(C)o2)c(N2CCCCC2)c1` (stereo not shown) (as salt: HCl) [Cpd. 58, 2-[3-(hydroxymethyl)-1H-indol-5-yl]-N-{[4-methyl-2-(piperidin-1-yl)phenyl](5-methylfuran-2-yl)methyl}acetamide] showed a melting point of 99 °C.
`Cc1ccc(C(NC(=O)C2(c3ccc4c(c3)OCC(=O)N4)CC2)c2ccc(C)o2)c(C)c1` (stereo not shown) (as salt: HCl) [Cpd. 59, N-[(2,4-dimethylphenyl)(5-methylfuran-2-yl)methyl]-1-(3-oxo-3,4-dihydro-2H-1,4-benzoxazin-7-yl)cyclopropane-1-carboxamide] came in with a melting point of 89 °C.
The figure for `Cc1ccc(C(NC(=O)C2(c3ccc4c(c3)CC(=O)N4)CC2)c2ccc(C)o2)c(C)c1` (stereo not shown) (as salt: HCl) [Cpd. 61, N-[(2,4-dimethylphenyl)(5-methylfuran-2-yl)methyl]-1-(2-oxo-2,3-dihydro-1H-indol-5-yl)cyclopropane-1-carboxamide] is 85 °C; for `Cc1ccc(C(NC(=O)C2(c3ccc4[nH]cc(CCO)c4c3)CC2)c2ccc(Cl)o2)c(C)c1` (stereo not shown) (as salt: HCl) [Cpd. 62, N-[(5-chlorofuran-2-yl)(2,4-dimethylphenyl)methyl]-1-[3-(2-hydroxyethyl)-1H-indol-5-yl]cyclopropane-1-carboxamide] it is 70 °C.
As to `Cc1ccc(C(NC(=O)C2(c3ccc4c(c3)CS(=O)(=O)N4)CC2)c2ccc(C)o2)c(C)c1` (stereo not shown) (as salt: HCl) [Cpd. 63, N-[(2,4-dimethylphenyl)(5-methylfuran-2-yl)methyl]-1-(2,2-dioxo-1,3-dihydro-2,1-benzothiazol-5-yl)cyclopropane-1-carboxamide], the melting point was found to be 97 °C.
For `Cc1ccc(C(NC(=O)Cc2ccc3[nH]cc(C)c3c2)c2ccc(C)o2)c(N2CCCCC2)c1` (stereo not shown) (as salt: HCl) [Cpd. 64, 2-(3-methyl-1H-indol-5-yl)-N-{[4-methyl-2-(piperidin-1-yl)phenyl](5-methylfuran-2-yl)methyl}acetamide], the melting point amounted to 68 °C.
The compound `Cc1ccc(C(NC(=O)C2(c3ccc4c(c3)CN(S(C)(=O)=O)C4)CC2)c2ccc(C)o2)c(C)c1` (stereo not shown) (as salt: HCl) [Cpd. 65, N-[(2,4-dimethylphenyl)(5-methylfuran-2-yl)methyl]-1-(2-methanesulfonyl-2,3-dihydro-1H-isoindol-5-yl)cyclopropane-1-carboxamide] registered a melting point of 67 °C.
`Cc1ccc(C(NC(=O)C2(c3ccc4[nH]cc(CCO)c4c3)CC2)c2ccc(C)o2)c(N2CCCCC2)c1` (stereo not shown) (as salt: HCl) [Cpd. 66, 1-[3-(2-hydroxyethyl)-1H-indol-5-yl]-N-{[4-methyl-2-(piperidin-1-yl)phenyl](5-methylfuran-2-yl)methyl}cyclopropane-1-carboxamide] displayed a melting point of 95 °C.
The figure for `Cc1ccc(C(NC(=O)Cc2ccc3c(c2)C(=O)CC3)c2ccc(C)o2)c(N2CCCCC2)c1` (stereo not shown) (as salt: HCl) [Cpd. 67, N-{[4-methyl-2-(piperidin-1-yl)phenyl](5-methylfuran-2-yl)methyl}-2-(3-oxo-2,3-dihydro-1H-inden-5-yl)acetamide] is 71 °C.
The figure for `Cc1ccc(C(NC(=O)Cc2ccc3c(c2)CS(=O)(=O)N3CC2CCOCC2)c2ccc(C)o2)c(Br)c1` (stereo not shown) (as salt: HCl) [Cpd. 68, N-[(2-bromo-4-methylphenyl)(5-methylfuran-2-yl)methyl]-2-[1-(oxan-4-ylmethyl)-2,2-dioxo-1,3-dihydro-2,1-benzothiazol-5-yl]acetamide] is 92 °C.
Regarding `Cc1ccc(C(NC(=O)C2(c3ccc4c(c3)CS(=O)(=O)N4C)CC2)c2ccc(C)o2)c(C)c1` (stereo not shown) (as salt: HCl) [Cpd. 70, N-[(2,4-dimethylphenyl)(5-methylfuran-2-yl)methyl]-1-(1-methyl-2,2-dioxo-1,3-dihydro-2,1-benzothiazol-5-yl)cyclopropane-1-carboxamide], the melting point is 70 °C.
The figure for `Cc1ccc(C(NC(=O)C2(c3ccc4c(c3)CS(=O)(=O)N4)CC2)c2ccc(C)o2)c(N(C)C)c1` (stereo not shown) (as salt: HCl) [Cpd. 71, N-{[2-(dimethylamino)-4-methylphenyl](5-methylfuran-2-yl)methyl}-1-(2,2-dioxo-1,3-dihydro-2,1-benzothiazol-5-yl)cyclopropane-1-carboxamide] is 107 °C.
The figure for `Cc1ccc(C(NC(=O)C2(c3ccc4c(c3)CS(=O)(=O)C4)CC2)c2ccc(Cl)o2)c(C)c1` (stereo not shown) (as salt: HCl) [Cpd. 72, N-[(5-chlorofuran-2-yl)(2,4-dimethylphenyl)methyl]-1-(2,2-dioxo-1,3-dihydro-2-benzothiophen-5-yl)cyclopropane-1-carboxamide] is 80 °C.
Turning to `Cc1ccc(C(NC(=O)C2(c3ccc4c(c3)CN(S(C)(=O)=O)C4)CC2)c2ccc(C)o2)c(N2CCCC2)c1` (stereo not shown) (as salt: HCl) [Cpd. 73, 1-(2-methanesulfonyl-2,3-dihydro-1H-isoindol-5-yl)-N-{[4-methyl-2-(pyrrolidin-1-yl)phenyl](5-methylfuran-2-yl)methyl}cyclopropane-1-carboxamide], the melting point came out at 84 °C.
`Cc1ccc(C(NC(=O)C2(c3ccc4c(c3)CS(=O)(=O)C4)CC2)c2ccc(C)o2)c(C)c1` (stereo not shown) (as salt: HCl) [Cpd. 74, N-[(2,4-dimethylphenyl)(5-methylfuran-2-yl)methyl]-1-(2,2-dioxo-1,3-dihydro-2-benzothiophen-5-yl)cyclopropane-1-carboxamide] came in with a melting point of 74 °C.
The figure for `Cc1ccc(C(NC(=O)C2(c3ccc4c(c3)CN(S(C)(=O)=O)C4)CC2)c2ccc(C)o2)c(N(C)C)c1` (stereo not shown) (as salt: HCl) [Cpd. 76, N-{[2-(dimethylamino)-4-methylphenyl](5-methylfuran-2-yl)methyl}-1-(2-methanesulfonyl-2,3-dihydro-1H-isoindol-5-yl)cyclopropane-1-carboxamide] is 70 °C.
The compound `Cc1ccc(C(NC(=O)Cc2ccc3[nH]c(C)nc3c2)c2ccc(C)o2)c(Br)c1` (stereo not shown) (as salt: HCl) [Cpd. 77, N-[(2-bromo-4-methylphenyl)(5-methylfuran-2-yl)methyl]-2-(2-methyl-1H-1,3-benzodiazol-5-yl)acetamide] had a melting point of 209 °C.
In turn, `Cc1ccc(C(NC(=O)Cc2ccc3c(c2)CS(=O)(=O)C3)c2ccc(C)o2)c(N2CCCCC2)c1` (stereo not shown) (as salt: HCl) [Cpd. 78, 2-(2,2-dioxo-1,3-dihydro-2-benzothiophen-5-yl)-N-{[4-methyl-2-(piperidin-1-yl)phenyl](5-methylfuran-2-yl)methyl}acetamide] gave a melting point of 87 °C.
For the compound `Cc1ccc(C(NC(=O)Cc2ccc3c(c2)CN(S(C)(=O)=O)C3)c2ccc(Cl)o2)c(N2CCCCC2)c1` (stereo not shown) (as salt: HCl) [Cpd. 79, N-[(5-chlorofuran-2-yl)[4-methyl-2-(piperidin-1-yl)phenyl]methyl]-2-(2-methanesulfonyl-2,3-dihydro-1H-isoindol-5-yl)acetamide], the melting point came out at 143 °C.
The figure for `Cc1ccc(C(NC(=O)C2(c3ccc4c(c3)CN(S(C)(=O)=O)C4)CC2)c2ccc(Cl)o2)c(N2CCCC2)c1` (stereo not shown) (as salt: HCl) [Cpd. 80, N-[(5-chlorofuran-2-yl)[4-methyl-2-(pyrrolidin-1-yl)phenyl]methyl]-1-(2-methanesulfonyl-2,3-dihydro-1H-isoindol-5-yl)cyclopropane-1-carboxamide] is 82 °C.
In the case of `Cc1ccc(C(NC(=O)Cc2ccc3[nH]c(C)nc3c2)c2ccccc2)c(N2CCCC2)c1` (stereo not shown) (as salt: HCl) [Cpd. 82, 2-(2-methyl-1H-1,3-benzodiazol-5-yl)-N-{[4-methyl-2-(pyrrolidin-1-yl)phenyl](phenyl)methyl}acetamide], the melting point worked out at 132 °C.
